Test [1] addresses T1, human ALK2 R206H (Homo sapiens, UniProt Q04771, R206H).
T1 construct: expressed in transfected cells; host or cells: HEK293 (ATCC CRL1573), lentivirus transduction, blasticidin selection
T1 sequence (Q04771 21-509 R206H): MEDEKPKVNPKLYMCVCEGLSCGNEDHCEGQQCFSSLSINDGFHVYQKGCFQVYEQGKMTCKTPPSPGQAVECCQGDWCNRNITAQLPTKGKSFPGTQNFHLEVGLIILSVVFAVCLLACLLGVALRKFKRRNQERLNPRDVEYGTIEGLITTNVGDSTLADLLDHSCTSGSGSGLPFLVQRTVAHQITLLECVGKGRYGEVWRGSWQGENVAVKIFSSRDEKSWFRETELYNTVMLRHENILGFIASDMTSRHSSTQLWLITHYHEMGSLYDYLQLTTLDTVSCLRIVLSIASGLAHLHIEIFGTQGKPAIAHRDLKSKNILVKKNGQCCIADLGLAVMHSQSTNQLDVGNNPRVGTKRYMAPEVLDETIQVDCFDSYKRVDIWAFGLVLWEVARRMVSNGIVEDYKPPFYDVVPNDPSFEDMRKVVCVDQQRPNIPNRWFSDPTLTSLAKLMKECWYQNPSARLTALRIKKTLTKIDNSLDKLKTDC
Put plainly: Cell-based ALK2-R206H cell activity assay (Smad1-Ser463/Ser465 phosphorylation by AlphaLISA in HEK293-ALK2-R206H cells). The settings on record: read-out: Cell Line (Cell Assay IC50). The gist of the method:
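Stable HEK293 cells expressing C-terminally FLAG-tagged human ALK2 R206H (lentiviral, blasticidin-selected) were treated with compounds in 10-point, 3-fold dilutions from 10 μM or 1 μM top, in duplicate. Smad1 Ser463/Ser465 phosphorylation was read by AlphaLISA.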
In general terms: Alpha assays give light when donor and acceptor beads are brought close together.

The target in test [2] is T2, ALK2 R206H (GST-tagged mutant ALK2) (Homo sapiens, UniProt Q04771, R206H).
T2 construct: purchased Carna Bioscience or ThermoFisher 09-148 or PV6232
T2 sequence (Q04771 21-509 R206H): T1 sequence (Q04771 21-509 R206H)
Put plainly: ALK binding assay (LANTHASCREEN TR-FRET competitive binding, displacement of Kinase Tracer 178). To be noted: ALK2 R206H, LANTHASCREEN TR-FRET competitive binding; read-out: Binding Assay (IC50). A general note: TR-FRET usually uses a lanthanide donor and a delayed reading to cut background.

pIC50: −log10 of the molar value.

Usually pIC50 stands for the negative decadic logarithm of the IC50, by convention in mol/L.

As for `O=C(C1CC(F)(F)C1)N1CCN(c2ccnn3cc(-c4ccc(N5CCNCC5)cc4)cc23)CC1` [Compound 296], the pIC50 in test [1] is 6.30 to 7.00; in test [2], greater than 8.00.

For the compound `O=C(C1CC1)N1CCN(c2ccnn3cc(-c4ccc(N5CCNCC5C(F)F)cc4)cc23)CC1` (stereo not shown) [Compound 297], the pIC50 is greater than 7.00 in test [1] and greater than 8.00 in test [2].

In the case of `CC(C)N1CC[C@@H](c2ccc(-c3cc4c(N5CCN(C(=O)[C@H]6C[C@@H]6C#N)CC5)ccnn4c3)cc2)C1` [Compound 298], the pIC50 in test [1] is greater than 7.00; in test [2] it was greater than 8.00.

In the case of `CCN1CCC(c2ccc(-c3cc4c(N5CCN(C(=O)N6CC(C#N)C6)CC5)ccnn4c3)cc2)C1` (stereo not shown) [Compound 300, 1-(4-(6-(4-(1-ethylpyrrolidin-3-yl)phenyl)pyrrolo[1,2-b]pyridazin-4-yl)piperazine-1-carbonyl)azetidine-3-carbonitrile], the figures for the negative logarithm of the IC50 (pIC50) in test [1] and in test [2] were greater than 7.00 and greater than 8.00, respectively.

Take `CCN1CCN(c2ccc(-c3cc4c(N5CCN(C(=O)[C@H]6C[C@H]6C#N)CC5)ccnn4c3)cc2)CC1` [Compound 301]: the negative-log IC50 (pIC50) in test [1] is 6.30 to 7.00; in test [2], greater than 8.00.

Take `CCN1CCN(c2ccc(-c3cc4c(N5CCN(C(=O)[C@H]6C[C@@H]6C#N)CC5)ccnn4c3)cc2)CC1` [Compound 302]: the negative-log IC50 (pIC50) was greater than 7.00 in test [1] and greater than 8.00 in test [2].

For the compound `CCN1CC[C@@H](c2ccc(-c3cc4c(N5CCN(C(=O)N6CC(C#N)C6)CC5)ccnn4c3)cc2)C1` [Compound 303], the figures for the negative logarithm of the IC50 (pIC50) in test [1] and in test [2] were greater than 7.00 and greater than 8.00, respectively.

On to `CCN1CC[C@H](c2ccc(-c3cc4c(N5CCN(C(=O)N6CC(C#N)C6)CC5)ccnn4c3)cc2)C1` [Compound 304], for which the negative-log IC50 (pIC50) in test [1] is greater than 7.00; in test [2], greater than 8.00.

On to `O=C(C1CC1)N1CCN(c2ccnn3cc(-c4ccc([C@@H]5CCCN(C6CCC6)C5)cc4)cc23)CC1` [Compound 305], for which the negative logarithm of the IC50 (pIC50) was greater than 7.00 in test [1] and greater than 8.00 in test [2].

Take `O=C(C1CC1)N1CCN(c2ccnn3cc(-c4ccc(N5CCN6CCCCC6C5)cc4)cc23)CC1` (stereo not shown) [Compound 307]: the pIC50 is 6.30 to 7.00 in test [1] and greater than 8.00 in test [2].

For `CC(C)N1CC2(CN(c3ccc(-c4cc5c(N6CCN(C(=O)C7CC7)CC6)ccnn5c4)cc3)C2)C1` [Compound 308], the negative-log IC50 (pIC50) is greater than 7.00 in test [1] and greater than 8.00 in test [2].

For the compound `N#CC1CN(C(=O)N2CCN(c3ccnn4cc(-c5ccc(OC6CCCNC6)cc5)cc34)CC2)C1` (stereo not shown) [Compound 309], the pIC50 in test [1] is 6.30 to 7.00; in test [2] it was greater than 8.00.

Turning to `O=C(C1CC1)N1CCN(c2ccnn3cc(-c4ccc(C5CCN(C6COC6)CC5)cc4)cc23)CC1` [Compound 310], the pIC50 in test [1] was 6.30 to 7.00; in test [2], greater than 8.00.

Regarding `CC(C)N1CCCC(c2ccc(-c3cc4c(N5CCN(C(=O)C6CCC6)CC5)ccnn4c3)cc2)C1` (stereo not shown) [Compound 312], the pIC50 in test [1] is greater than 7.00; in test [2] it was greater than 8.00.

On to `CCC(C)N1CCC(c2ccc(-c3cc4c(N5CCN(C(=O)C6CC6)CC5)ccnn4c3)cc2)CC1` (stereo not shown) [Compound 313], for which the negative-log IC50 (pIC50) was greater than 7.00 in test [1] and greater than 8.00 in test [2].

`O=C(C1CC1)N1CCN(c2ccnn3cc(-c4ccc(N5CCN(C6COC6)CC5)cc4)cc23)CC1` [Compound 314, cyclopropyl(4-(6-(4-(4-(oxetan-3-yl)piperazin-1-yl)phenyl)pyrrolo[1,2-b]pyridazin-4-yl)piperazin-1-yl)methanone]: the pIC50 in test [1] was less than 6.30; in test [2] it was 7.30 to 8.00.

As to `O=C(C1CC1)N1CCN(c2ccnn3cc(-c4ccc(N5CCN6CCOCC6C5)cc4)cc23)CC1` (stereo not shown) [Compound 315], the values for the pIC50 in test [1] and in test [2] were 6.30 to 7.00 and 7.30 to 8.00, respectively.

`CCN1CCN(c2ccc(-c3cc4c(N5CCN(C(=O)C6CC6)CC5)ccnn4c3)cc2)CC1(C)C` [Compound 316]: the pIC50 was 6.30 to 7.00 in test [1] and greater than 8.00 in test [2].

On to `CCN1CCC(c2ccc(-c3cc4c(N5CCN(C(=O)N6CCCC6)CC5)ccnn4c3)cc2)CC1` [Compound 317], for which the figures for the pIC50 in test [1] and in test [2] were 6.30 to 7.00 and greater than 8.00, respectively.

As to `CC(C)N1CCN(c2ccc(-c3cc4c(N5CCN(C(=O)C6CC6)[C@H](C)C5)ccnn4c3)cc2)CC1` [Compound 318], the negative logarithm of the IC50 (pIC50) was 6.30 to 7.00 in test [1] and greater than 8.00 in test [2].

In the case of `CC(C)N1CC[C@H](c2ccc(-c3cc4c(N5CCN(C(=O)[C@H]6C[C@H](O)C6)CC5)ccnn4c3)cc2)C1` [Compound 320], the results for the pIC50 in test [1] and in test [2] were greater than 7.00 and greater than 8.00, respectively.

In the case of `CC(C)N1CC[C@@H](c2ccc(-c3cc4c(N5CCN(C(=O)[C@H]6C[C@H](O)C6)CC5)ccnn4c3)cc2)C1` [Compound 321], the pIC50 in test [1] was greater than 7.00; in test [2] it was greater than 8.00.

For `CCN1CCC(c2ccc(-c3cc4c(N5CCN(C(=O)OC6CCC6)CC5)ccnn4c3)cc2)CC1` [Compound 322], the pIC50 in test [1] is greater than 7.00; in test [2] it was greater than 8.00.

On to `CC(C)N1CCCC(O)(c2ccc(-c3cc4c(N5CCN(C(=O)C6CC6)CC5)ccnn4c3)cc2)C1` (stereo not shown) [Compound 323], for which the pIC50 in test [1] is greater than 7.00; in test [2], greater than 8.00.

Take `CC(C)N1CCC(O)(c2ccc(-c3cc4c(N5CCN(C(=O)C6CC6)CC5)ccnn4c3)cc2)CC1` [Compound 324]: the results for the negative-log IC50 (pIC50) in test [1] and in test [2] were greater than 7.00 and greater than 8.00, respectively.

Take `CC(C)N1CCC[C@@](O)(c2ccc(-c3cc4c(N5CCN(C(=O)C6CC6)CC5)ccnn4c3)cc2)C1` [Compound 325]: the values for the pIC50 in test [1] and in test [2] were greater than 7.00 and greater than 8.00, respectively.

As for `CC(C)N1CCC[C@](O)(c2ccc(-c3cc4c(N5CCN(C(=O)C6CC6)CC5)ccnn4c3)cc2)C1` [Compound 326], the pIC50 was greater than 7.00 in test [1] and greater than 8.00 in test [2].

For `CCN1CCN(c2ccc(-c3cc4c(N5CCN(C(=O)N6CCCC6)CC5)ccnn4c3)cc2)CC1` [Compound 327], the pIC50 in test [1] is 6.30 to 7.00; in test [2], 7.30 to 8.00.

As to `CCNC(=O)N1CCN(c2ccnn3cc(-c4ccc(N5CC6(C5)CN(C(C)C)C6)cc4)cc23)CC1` [Compound 328], the pIC50 in test [1] was 6.30 to 7.00; in test [2], greater than 8.00.

In the case of `CCN1CC2CN(c3ccnn4cc(-c5ccc(N6CCN(C(C)C)CC6)cc5)cc34)CCN2C1=O` (stereo not shown) [Compound 329], the negative logarithm of the IC50 (pIC50) in test [1] is 6.30 to 7.00; in test [2] it was greater than 8.00.

In the case of `CCN1C[C@@H]2CN(c3ccnn4cc(-c5ccc(N6CCN(C(C)C)CC6)cc5)cc34)CCN2C1=O` [Compound 330], the figures for the pIC50 in test [1] and in test [2] were 6.30 to 7.00 and greater than 8.00, respectively.

Consider `CCN1CC2(C1)CN(c1ccc(-c3cc4c(N5CCN(C(=O)[C@@H]6C[C@H]6F)CC5)ccnn4c3)cc1)C2` [Compound 332], for which the pIC50 in test [1] is greater than 7.00; in test [2], greater than 8.00.

Regarding `CCN1CC2(C1)CN(c1ccc(-c3cc4c(N5CCN(C(=O)[C@H]6C[C@H]6F)CC5)ccnn4c3)cc1)C2` [Compound 333], the results for the pIC50 in test [1] and in test [2] were greater than 7.00 and greater than 8.00, respectively.

On to `COCCN1CCN(c2ccc(-c3cc4c(N5CCN(C(=O)C6CC6)CC5)ccnn4c3)cc2)CC1` [Compound 334], for which the negative-log IC50 (pIC50) in test [1] is 6.30 to 7.00; in test [2], 7.30 to 8.00.

`CCN1CCN(c2ccc(-c3cc4c(N5CCN(C(=O)[C@H]6C[C@@H](O)C6)CC5)ccnn4c3)cc2)CC1` [Compound 335]: the negative-log IC50 (pIC50) in test [1] is less than 6.30; in test [2], less than 7.30.

As to `CCN1CCN(c2ccc(-c3cc4c(N5CCN(C(=O)[C@H]6C[C@H](O)C6)CC5)ccnn4c3)cc2)CC1` [Compound 336], the negative-log IC50 (pIC50) in test [1] was greater than 7.00; in test [2] it was greater than 8.00.

On to `CCN1CCC(c2ccc(-c3cc4c(N5CCN(C(=O)N6CC(O)C6)CC5)ccnn4c3)cc2)CC1` [Compound 337], for which the negative-log IC50 (pIC50) was greater than 7.00 in test [1] and greater than 8.00 in test [2].

On to `CCOC(=O)N1CCN(c2ccnn3cc(-c4ccc(N5CC6(C5)CN(C(C)C)C6)cc4)cc23)CC1` [Compound 338], for which the negative logarithm of the IC50 (pIC50) in test [1] is 6.30 to 7.00; in test [2], greater than 8.00.

As for `CCNC(=O)N1CCN(c2ccnn3cc(-c4ccc(C5CCN(C(C)C)CC5)cc4)cc23)C[C@H]1C` [Compound 339], the negative logarithm of the IC50 (pIC50) was greater than 7.00 in test [1] and greater than 8.00 in test [2].

Turning to `CC(C)NC(=O)N1CCN(c2ccnn3cc(-c4ccc(C5CCN(C(C)C)CC5)cc4)cc23)CC1` [Compound 340], the negative-log IC50 (pIC50) in test [1] was greater than 7.00; in test [2] it was greater than 8.00.

Consider `CCCNC(=O)N1CCN(c2ccnn3cc(-c4ccc(C5CCN(C(C)C)CC5)cc4)cc23)CC1` [Compound 341], for which the results for the pIC50 in test [1] and in test [2] were greater than 7.00 and greater than 8.00, respectively.

With `O=C([C@H]1CC[C@H](O)CC1)N1CCN(c2ccnn3cc(-c4ccc(C5CNCCO5)cc4)cc23)CC1` (stereo partly shown) [Compound 343], the results for the negative-log IC50 (pIC50) in test [1] and in test [2] were 6.30 to 7.00 and greater than 8.00, respectively.

Take `CCN1CCN(c2ccc(-c3cc4c(N5CCN(C(=O)N6CC(O)C6)CC5)ccnn4c3)cc2)CC1` [Compound 344]: the pIC50 in test [1] was 6.30 to 7.00; in test [2], 7.30 to 8.00.

As for `CC(C)N1CCC(c2ccc(-c3cc4c(N5CCN(C(=O)C6CC6)CC5)ccnn4c3)cc2F)CC1` [Compound 345], the negative logarithm of the IC50 (pIC50) in test [1] is greater than 7.00; in test [2], greater than 8.00.

The values are drawn from US10233186B2, “Inhibitors of activin receptor-like kinase” (BLUEPRINT MEDICINES CORPORATION, priority 2016, dated 2019).
